In patent EP3909646A1 (priority 2020, dated 2021):
Entries after “also recorded” stand apart in the source; their conditions may differ.

Legend:
TMPRSS2 = assay type: cell-based, human; settings: Fig.4E
ACE2 = assay type: cell-based, human
primary NHBE [1] = assay type: cell-based, human
SARS-CoV-2 = assay type: cell-based
primary NHBE [2] = settings: uninfected primary NHBE, different doses titrated, Fig.1C

Structure (SMILES)	TMPRSS2 gene expression (microarray, confirmed by qPCR) (TMPRSS2; 10 µM hydrocortisone, uninfected cells)	TMPRSS2 gene expression (qPCR) (TMPRSS2; 24h pre-treatment 10 µM hydrocortisone, uninfected and virus-infected NHBE, with or without IFN-γ)	ACE2 gene expression (microarray, confirmed by qPCR) (ACE2)	ACE2 gene expression (qPCR) (ACE2)	genes that may support the cytokine storm (gene expression) (primary NHBE [1])	type I interferons IFNB1 and IFNE and type III interferons such as IFNL3 (gene expression) (primary NHBE [1])	APOBEC3A gene expression (primary NHBE [1]; Fig.4A)	known and potential virus entry receptors (gene expression) (primary NHBE [1]; Fig.4C)	genes upregulated by SARS-CoV-2-infection, but downregulated by drug (primary NHBE [1]; Venn diagram, Fig.3E) [genes]	genes reduced by SARS-CoV-2-infection, but increased by drug (primary NHBE [1]; Venn diagram, Fig.7C) [genes]	global gene expression changes (primary NHBE [1]; icatibant 1 µM or hydrocortisone 10 µM, volcano plots, Fig.3D)	antiviral epithelial response (gene expression) (primary NHBE [1]; in general, Fig.4A)	antiviral response genes significantly downregulated (primary NHBE [1]; over all conditions, Fig.8A)	transcripts regulated by both, hydrocortisone and icatibant (primary NHBE [1]; overlap of the two drugs, majority long non-coding RNAs, Fig.3E) [transcripts]	virus titers / infectious viral particles in supernatant (plaque forming units) (SARS-CoV-2)	infection-mediated cytotoxicity (LDH), rescue (SARS-CoV-2 infected NHBE; 1 µM icatibant added 6h post-inoculation, Fig.5F)	infection-mediated cytotoxicity (LDH) (SARS-CoV-2 infected NHBE; 24h pre-treatment 1 µM icatibant, then 24h SARS-CoV-2 inoculation, n=12, Fig.5E)	potential cytotoxicity (LDH) (primary NHBE [2])
C[C@]12CCC(=O)C=C1CC[C@@H]1[C@@H]2[C@@H](O)C[C@@]2(C)[C@H]1CC[C@]2(O)C(=O)CO [hydrocortisone]	upregulation of ACE2 and TMPRSS2 on the transcriptional level of uninfected cells	still enhanced TMPRSS2 expression in both, uninfected and virus-infected NHBE	upregulation of ACE2 and TMPRSS2 on the transcriptional level of uninfected cells	did not change	not significantly influenced	even slightly enhanced	even increased	rather enhances receptors, like TMPRSS2, 11B and 11E proteins	300	198	almost balanced relationship between suppression and induction of gene expression	changes of the antiviral epithelial response were not induced	significantly reduced DNAJC3, CREBZF, GPAM, BNIP3L and FAM111A	86	no adverse effect on the virus titers; also recorded: did not reduce virus titers	–	–	–
NC(N)=NCCC[C@@H](N)C(=O)N[C@@H](CCCN=C(N)N)C(=O)N1CCC[C@H]1C(=O)N1C[C@H](O)C[C@H]1C(=O)NCC(=O)N[C@@H](Cc1cccs1)C(=O)N[C@@H](CO)C(=O)N1Cc2ccccc2C[C@@H]1C(=O)N1[C@H](C(=O)N[C@@H](CCCN=C(N)N)C(=O)O)C[C@@H]2CCCC[C@@H]21 [icatibant]	–	–	–	–	–	–	–	–	–	–	–	–	–	–	–	significantly reduced	significantly reduced	no toxic effects in NHBE cell cultures, but even exhibits a cell-protecting effect
